Like-named read-outs stand apart in the source and are kept apart here.
Legend:
[1] = tested on: SKMEL5 xenograft; assay: Biomarker levels in SKMEL5 wt melanoma xenograft tumor extracts (MSD multiplex immunoassay); format: in vivo, mice
Method: (§1) A panel of biomarkers was measured in Melanoma and RCC xenograft tissue extracts from mice, described in Table 4. Xenografts were generated using the listed melanoma and RCC cell lines, and tumors harvested and extracted following the indicated treatments. SKMEL5 cells were used with or without transfection to express constitutively active GSK3β. A375 cells were used with or without transfection to express GSK3β specific shRNA under a doxycycline-controlled promoter.
(§2) Multiplex immunoassay kits were used for detection of total and/or phosphorylated biomarkers (supplied by Meso Scale Discovery, a division of Meso Scale Diagnostics, LLC, Rockville, Md.). Levels of each biomarker were determined by calibration of the assays with were either purified calibrator proteins or using control cell lysates from appropriately treated cultured cell lines (e.g., cells subjected to conditions known to induce or reduce levels of a specific biomarker). Calibration curves were derived by testing serial dilutions of the calibrator lysates or purified proteins. Levels of biomarkers in test samples were back-calculated from the calibration curves and were expressed in terms of wt. (or arbitrary Units for phospho-protein markers) of protein per weight of tissue extract (for purified calibrators) or in terms of weight of crude control lysate protein per well (for lysate calibrators). Titrations of tumor extracts were carried out to determine the linearity of the assay response to sample dilution and to select the sample dilution that would be appropriate to use for each assay panel.
(§3) In general, the assay format was as follows, with minor alterations for specific assay panels as indicated in the assay protocols provided with each assay kit (supplied by Meso Scale Discovery, Rockville, Md.): (1) block MSD MULTI-SPOT® plate for 1 hour with appropriate MSD® blocking solution and wash; (2) add 25 μl assay diluent to each well, if specified; (3) add 25 μl calibrator, or sample (diluted as appropriate) to each well; (4) incubate with shaking for 1-3 hours (time as specified) and wash the well; (5) add 25 μl labeled detection antibody solution to each well; (6) incubate with shaking for 1-2 hours (time as specified) and wash the well; (7) add 150 μl MSD read buffer to each well; (8) read plate immediately on MSD SECTOR® Imager 6000 Reader (supplied by Meso Scale Discovery, Rockville, Md.).
(§4) Tumor tissue extracts were assayed at 5-10 μg/well total protein per well. Samples from each set were assayed on the same plate. […] The signals obtained are not normalized to any housekeeping tissue factor, which may serve to improve animal-to-animal reproducibility, but are normalized to total lysate protein.
(§5) Samples that were not treated with drug are designated as (−) and those treated with drug as (+).

[2] = tested on: A375 (GSKshRNA) xenograft + doxycycline; assay: Biomarker levels in A375 shRNA + Dox melanoma xenograft tumor extracts (MSD multiplex immunoassay); format: in vivo, mice; conditions: A375 shRNA + Dox tumor extract, sorafenib (+), mean
Method: as §1, §2, §3, §4, §5

[3] = tested on: A375 xenograft; assay: Biomarker levels in A375 control melanoma xenograft tumor extracts (MSD multiplex immunoassay); format: in vivo, mice
Method: as §1, §2, §3, §4, §5

[4] = tested on: A375 cells; conditions: cited from earlier work
[5] = tested on: A375 (GSKshRNA) xenograft; assay: Biomarker levels in A375 GSK3β shRNA melanoma xenograft tumor extracts (MSD multiplex immunoassay); format: in vivo, mice
Method: as §1, §2, §3, §4, §5

[6] = tested on: SKMEL5 (active GSK3beta) xenograft; assay: Biomarker levels in SKMEL5 GSK3β+ (active GSK3beta) melanoma xenograft tumor extracts (MSD multiplex immunoassay); format: in vivo, mice
Method: as §1, §2, §3, §4, §5

[7] = tested on: 786-0 xenograft; assay: Biomarker levels in 786-0 RCC xenograft tumor extracts (MSD multiplex immunoassay); format: in vivo, mice
Method: as §1, §2, §3, §4, §5

[8] = tested on: A498 xenograft; assay: Biomarker levels in A498 RCC xenograft tumor extracts (MSD multiplex immunoassay); format: in vivo, mice; conditions: A498 tumor extract, sunitinib (+), mean
Method: as §1, §2, §3, §4, §5

[9] = SKMEL5 wt tumor extract, sorafenib (+), mean
[10] = A375 control tumor extract, sorafenib (+), mean
[11] = wild type A375 tumors, sorafenib
[12] = A375 GSK3β shRNA tumor extract, sorafenib (+), mean
[13] = SKMEL5 GSK3β+ tumor extract, sorafenib (+), mean
[14] = 786-0 tumor extract, sunitinib (+), mean

## CNC(=O)c1cc(Oc2ccc(NC(=O)Nc3ccc(Cl)c(C(F)(F)F)c3)cc2)ccn1 [sorafenib]
[1]; SKMEL5 not transfected, sorafenib
  change in E-cadherin levels with treatment: no additional effect
[1]; SKMEL5 tumors, sorafenib
  change in phospho-Akt levels with treatment: unchanged phospho-Akt levels
  change in total Akt levels with treatment: reduced levels of total Akt
[1]; [9]
  Akt: 22.3 pg/ug pr
  E-Cadherin: 10.9 pg/ug pr
  GSK3β: 162 pg/ug pr
  Rb: 0.23 pg/ug pr
  SRFP-1: 0.08 pg/ug pr
  VEGF: 0.8 pg/ug pr
  Wnt3A: 6.2 pg/ug pr
  c-Met: 0.51 ng/ug pr
  dephospho β-catenin: 7.4 Units/ug pr
  phospho-GSK3β: 44.0 Units/ug pr
  phospho-Rb: 0.62 Units/ug pr
  phospho-cMet: 15.7 pg lys cal/ug pr
  β-catenin: 31 pg/ug pr
[1]; wt SKMEL5 tumors, sorafenib
  change in active (dephospho) β-catenin with treatment: decreased
[1]; wt SKMEL5 tumors, sorafenib, total cellular protein
  change in GSK3β phosphorylation with treatment: A reduction in GSK3β phosphorylation was not observed
[2]
  Akt: 1.6 pg/ug pr
  GSK3β: 24 pg/ug pr
  Rb: 0.27 pg/ug pr
  SRFP-1: 0.22 pg/ug pr
  VEGF: 2.6 pg/ug pr
  c-Met: 0.10 ng/ug pr
  dephospho β-catenin: 2.9 Units/ug pr
  phospho-GSK3β: 6.6 Units/ug pr
  phospho-Rb: 0.10 Units/ug pr
  phospho-cMet: 1.4 pg lys cal/ug pr
  phosphor-Akt: 6.1 Units/ug pr
  β-catenin: 21 pg/ug pr
[3]; [10]
  Akt: 5.3 pg/ug pr
  GSK3β: 84 pg/ug pr
  Rb: 3.45 pg/ug pr
  SRFP-1: 1.30 pg/ug pr
  Wnt3A: 23.2 pg/ug pr
  c-Met: 0.23 ng/ug pr
  dephospho β-catenin: 7.3 Units/ug pr
  phospho-Rb: 0.21 Units/ug pr
  phospho-cMet: 3.6 pg lys cal/ug pr
  phosphor-Akt: 8.5 Units/ug pr
  β-catenin: 32 pg/ug pr
[3]; control A375, sorafenib, most samples at or below detection limits
  change in total Rb levels with treatment: increase in its levels
[3]; [11]
  change in phospho-GSK3β with treatment: no changes
  change in total GSK3β with treatment: no changes
[4]; A375 cells, down-modulation of GSK3β with shRNA
  sorafenib-induced apoptosis: increase sorafenib-induced apoptosis
[4]; wild type A375 cells, endogenous active GSK3β
  sorafenib-induced apoptosis: resistance to sorafenib-induced apoptosis
[5]; [12]
  Akt: 2.2 pg/ug pr
  GSK3β: 50 pg/ug pr
  Rb: 0.96 pg/ug pr
  SRFP-1: 0.35 pg/ug pr
  VEGF: 8.5 pg/ug pr
  Wnt3A: 12.0 pg/ug pr
  c-Met: 0.16 ng/ug pr
  dephospho β-catenin: 3.0 Units/ug pr
  phospho-GSK3β: 11.1 Units/ug pr
  phospho-Rb: 0.13 Units/ug pr
  phospho-cMet: 1.8 pg lys cal/ug pr
  phosphor-Akt: 5.9 Units/ug pr
  β-catenin: 16 pg/ug pr
[5]; shRNA transfected A375 tumors, sorafenib
  change in levels of active β-catenin with treatment: reduction in levels of active β-catenin
[6]; [13]
  Akt: 32.4 pg/ug pr
  E-Cadherin: 0.0 pg/ug pr
  GSK3β: 88 pg/ug pr
  Rb: 0.63 pg/ug pr
  SRFP-1: 0.22 pg/ug pr
  VEGF: 7.2 pg/ug pr
  c-Met: 0.59 ng/ug pr
  dephospho β-catenin: 12.6 Units/ug pr
  phospho-GSK3β: 7.9 Units/ug pr
  phospho-Rb: 0.53 Units/ug pr
  phospho-cMet: 7.2 pg lys cal/ug pr
  phosphor-Akt: 14.3 Units/ug pr
  β-catenin: 39 pg/ug pr
[6]; SKMEL5 transfected (active GSK3β), sorafenib
  change in E-cadherin levels with treatment: no additional effect
[7]; 786-0, treated vs untreated
  change in VEGF levels with treatment: increased levels of VEGF

## CCN(CC)CCNC(=O)c1c(C)[nH]c(/C=C2\C(=O)Nc3ccc(F)cc32)c1C [sunitinib]
[8]
  Akt: 6.3 pg/ug pr
  E-Cadherin: 0.0 pg/ug pr
  GSK3β: 24 pg/ug pr
  Rb: 0.00 pg/ug pr
  SRFP-1: 0.15 pg/ug pr
  VEGF: 5.8 pg/ug pr
  Wnt3A: 8.8 pg/ug pr
  c-Met: 1.47 ng/ug pr
  dephospho β-catenin: 3.4 Units/ug pr
  phospho-GSK3β: 14.2 Units/ug pr
  phospho-Rb: 0.08 Units/ug pr
  phospho-cMet: 73.6 pg lys cal/ug pr
  phosphor-Akt: 59.1 Units/ug pr
  β-catenin: 34 pg/ug pr
[7]; [14]
  Akt: 9.3 pg/ug pr
  E-Cadherin: 0.1 pg/ug pr
  GSK3β: 61 pg/ug pr
  Rb: 6.48 pg/ug pr
  SRFP-1: 0.23 pg/ug pr
  VEGF: 38.3 pg/ug pr
  Wnt3A: 11.8 pg/ug pr
  c-Met: 1.26 ng/ug pr
  dephospho β-catenin: 23.3 Units/ug pr
  phospho-GSK3β: 5.9 Units/ug pr
  phospho-Rb: 0.14 Units/ug pr
  phospho-cMet: 31.5 pg lys cal/ug pr
  phosphor-Akt: 78.5 Units/ug pr
  β-catenin: 82 pg/ug pr
